Measurements as given in US10179770B2, “Quinolines derivatives as novel anticancer agents” (GENOSCIENCE PHARMA, priority 2013, dated 2019).
pEC50: −log10 of the molar value. Structures can show the parent of a compound that is named as a salt. Where two headings read alike, the source gives them in different places.

Columns and labels:
A-375 = test: EC50 determination in cancer cell lines; type: cell-based, human
Procedure: (§1) Compounds were added at different concentrations to each well, and cell cultures were incubated for 72 h. Vehicle (DMSO or H2O) was used as a control, and all compounds were tested in a constant percentage of vehicle. Cell outgrowth was measured using for adherent cells CellTiter […] Aqueous One Solution Cell Proliferation Assay (Promega) and for cell suspension, Sulforhodamine B colorimetric assay as described in Vichai et al. (Vichai, V. and Kirtikara, K. Nat. Protoc. 2006 (1) 1112-1116). Absorbance was measured using an Infinite F200 Pro or Sunrise TECAN plate reader.
(§2) The human melanoma cell line A375, colorectal carcinoma cell line HCT-116, hepatocellular carcinoma cell line HepG2 were cultured in Dulbecco's modified Eagle's medium supplemented with 10% fetal bovine serum and 1% Penicillin-Streptomycin. The human melanoma cell lines SK-MEL-28 and SK-MEL-5 were cultured in Minimum Essential Medium. The colorectal carcinoma cell lines HT-29 and Colo205 were respectively cultured in Mc Coy's and RPMI media. The human leukemia cell lines MV4-11 and KG-1 were cultured in Iscove's Modified Dulbecco's Media. The human leukemia cell line MOLM-14 was cultured in Minimum Essential Medium Alpha Medium supplemented with 10% Fetal Bovine Serum and 1% Penicillin-Streptomycin All culture media were supplemented with 10% fetal bovine serum and 1% Penicillin-Streptomycin except for MV4-11 cell line 20% fetal bovine serum and 1% Penicillin-Streptomycin. All the cell lines were maintained at 37° C. with 5% C02.
(§3) Briefly, adherent cells, A375, HCT-116, HepG2, SK-MEL-28, SK-MEL-5, HT-29 and Colo205 cells were respectively plated at 800, 5,000, 7,000, 2,500, 3,000-5,000, 5,000 or 5,000 cells per well onto 96-well plates in 90 μL of media per well and were allowed to grow overnight before the assay. For MV4-11 and KG-1 cells that grow in suspension, 40,000-60,000 cells were plated onto 96-well plates immediately before the assay. MOLM-14 cell line, that grow in suspension, 30,000 cells were plated onto 96-well plates immediately before the assay.
(§4) The cell growth measure was the same as described in example 51.
(§5) The experimental data are analyzed using a computer program, Graphpad Prism (GraphPad Software, Inc. La Jolla, Calif.) and EC50 values were determined as the dose of compound required to reduce absorbance values to 50% of the signal obtained for vehicle treated cell cultures and were a mean of at least two independent experiments except for EC50 values with (*) where […].

HepG2 = test: EC50 determination in cancer cell lines; type: cell-based, human
Procedure: as §1, §2, §3, §4, §5

A375 = test: Cell proliferation assay at 10 μM; type: cell-based, human; settings: Homo sapiens, read-out: Cell viability observed at 10 μM
Procedure: (§6) The human melanoma cell line A375 and colorectal carcinoma cell line HCT-116 were cultured in Dulbecco's modified Eagle's medium supplemented with 10% fetal bovine serum and 1% Penicillin-Streptomycin. The human leukemia cell line MOLM-14 was cultured in Minimum Essential Medium Alpha Medium supplemented with 10% Fetal Bovine Serum and 1% Penicillin-Streptomycin. All the cell lines were maintained at 37° C. with 5% CO2.
(§7) Briefly, adherent cells, A375 and HCT-116 cells were respectively plated at 800 or 5,000 cells per well onto 96-well plates in 90 μL of media per well and were allowed to grow overnight before the assay.
as §1
(§8) In each experiment, each point represents the average of two replicates in cell culture.
(§9) Results are presented in Table 1 below for concentrations of 10 μM of tested compounds.

HCT-116 [1] = test: Cell proliferation assay at 10 μM; type: cell-based; settings: Homo sapiens, HCT-116, 72 h, read-out: Cell viability observed at 10 μM
Procedure: as §6, §7, §1, §8, §9

MOLM-14 [2] = test: Cell proliferation assay at 10 μM; type: cell-based, human; settings: Homo sapiens, read-out: Cell viability observed at 10 μM
Procedure: as §6
For MOLM-14 cell line, which grows in suspension, 30,000 cells were plated onto 96-well plates immediately before the assay.
as §1, §8, §9

MOLM-14 [3] = test: EC50 determination in cancer cell lines; type: cell-based; settings: Homo sapiens, 72 h
Procedure: as §1, §2, §3, §4, §5

HCT-116 [4] = test: EC50 determination in cancer cell lines; type: cell-based, human
Procedure: as §1, §2
Briefly, adherent cells, A375, HCT-116, HepG2, SK-MEL-28, SK-MEL-5, HT-29 and Colo205 cells were respectively plated at 800, 5,000, 7,000, 2,500, 3,000-5,000, 5,000 or 5,000 cells per well onto 96-well plates in 90 μL of media per well and were allowed to grow overnight before the assay. For MV4-11 and KG-1 cells that grow in suspension, 40,000-60,000 cells were plated onto 96-well plates immediately before the assay. MOLM-14 cell line, that grow in suspension, 30,000 cells were plated onto 96-well plates immediately before the assay. […]
as §5

[5] = tested on: PBMC Healthy voluntary donor; test: Cell growth inhibition assay, PBMC of healthy donors; type: cell-based, human; settings: PBMC Healthy voluntary donor 1
Procedure: (§10) Each compound was added at different concentrations (combinations of six concentrations) to each well, and cell cultures were incubated for 48 h. Vehicle (H2O) was used as a control, and all compounds were tested in a constant percentage of vehicle. Cell outgrowth was measured using the CellTiter-Glo luminescent cell viability assay as described by the manufacturer (Promega, Ref G7571 Madison, Wis., USA) using a Centro (Berthold, France) plate reader. In each experiment, each point represents the average of triplicates in cell culture. The experimental data are analyzed using a computer program, Graphpad Prism (GraphPad Software, Inc.

[6] = tested on: patient derived acute myeloid leukemia (AML) cell lines; test: Cell growth inhibition assay, patient derived AML cells; type: cell-based, human; settings: 48 h
Procedure: as §10, with “The patient derived acute myeloid leukemia (AML) cells were obtained after written informed consent under the Institut Paoli Calmette (IPC) institutional review board approval and under the strict compliance of the Helsinki declaration on medical research involving human subjects. […] Each” for “Each”

Row | SMILES | pEC50 (A-375; Homo sapiens, A-375, 72 h) | pEC50 (HepG2; Homo sapiens, HepG2, 72 h) | viability at 10 µM (A375; A-375, 72 h) | viability at 10 µM (HCT-116 [1]) | viability at 10 µM (MOLM-14 [2]; MOLM-14, 72 h) | pEC50 (MOLM-14 [3]) | pEC50 (HCT-116 [4]; Homo sapiens, HCT-116, 72 h) | further results
1 | CCN(CC)C1CCN(Cc2cc(-c3ccccc3)nc3cc(Cl)ccc23)CC1 [XVII-6, 7-Chloro-2-phenyl-4-[4-(N,N-diethylamino)-piperidin-1-ylmethyl]quinoline dihydrochloride] | 5.52 | 5.10 | < 20% | < 20% | < 20% | 5.30 | 5.40 | 
2 | CN(C)CCCNc1cc(-c2ccc3ccccc3c2)nc2ccccc12 [XLII-2, N^1,N^1-dimethyl-N^3-[2-(naphtalen-2-yl)quinoline-4-yl]propane-1,3-diamine hydrochloride salt] | 5.52 | 4.72 | < 20% | < 20% | < 20% | 5.40 | 4.96 | 
3 | CCN(CC)C1CCN(c2cc(-c3ccccc3)nc3cc(Cl)ccc23)CC1 [II-3, 7-chloro-2-phenyl-4-(4-N,N-diethylamino-piperidin-1-yl)quinoline] | 5.52 | 5.10 |  |  |  | 5.30 | 5.40 | 
4 | Nc1ccn([C@@H]2O[C@H](CO)[C@@H](O)[C@@H]2O)c(=O)n1 [AraC, cytosine arabinoside, reference compound] |  |  |  |  |  |  |  | pEC50 [5]: 4.89; pEC50 ([6]; Patient 3, subtype Tri8): 4.36; pEC50 ([6]; Patient 8, subtype FLT3−): 4.29; pEC50 ([6]; Patient 9, subtype FLT3+): 4.68; pEC50 ([6]; Patient 10, subtype Inv 3): 4.44; pEC50 ([6]; Patient 12, subtype 5 & 7): < 4.40; pEC50 ([6]; Patient 13, subtype MLL): 5.52; pEC50 ([6]; Patient 16, subtype Inv 3): 4.96
5 | CN(C)CCCNc1cc(-c2ccccc2)nc2ccccc12 [XL-2, N^1,N^1-dimethyl-N^3-(2-phenylquinoline-4-yl)propane-1,3-diamine trifluoroacetate salt] | 5.52 | 4.77 |  |  |  | 5.52 | 5.30 | viability at 10 µM (A375; A-375, A375, 10 μM, 72 h, % of cell viability remaining): < 20%; viability at 10 µM (HCT-116 [1]; HCT-116, 10 μM, 72 h, % of cell viability remaining): 20 to 40%; viability at 10 µM (MOLM-14 [2]; MOLM-14, 10 μM, 72 h, % of cell viability remaining): < 20%
6 | CN(C)CCCNCc1cc(-c2ccccc2)nc2cc(Cl)ccc12 [XLIV-1, N^1,N^1-dimethyl-N^3-(7-chloro-2-phenylquinoline-4-ylmethyl)-propane-1,3-diamine] | 5.40 | 5.00 |  |  |  | 5.22 | 5.22 | 
7 | CN(C)CCCNc1cc(-c2ccccc2)nc2ccccc12 [XLI-1, N^1,N^1-dimethyl-N^3-(2-phenylquinoline-4-yl)propane-1,3-diamine] |  |  |  |  |  |  |  | pEC50 (A-375; 72 h): 5.70; pEC50 (HepG2; 72 h): 5.00; pEC50 (HCT-116 [4]; 72 h): 5.40
8 | CCN(CC)C1CCN(c2cc(-c3ccc(-c4ccccc4)cc3)nc3ccccc23)CC1 [IX-2, 2-(1,1′-biphenyl)-4-yl-4-(4-N,N-diethylamino-piperidin-1-yl)quinoline dihydrochloride] | 5.52 | 4.89 | < 20% | < 20% | < 20% | 5.40 | 5.40 | 
9 | CCN(CC)C1CCN(c2cc(-c3ccc4ccccc4c3)nc3ccccc23)CC1 [VI-5, 2-(2-naphtyl)-4-(4-N,N-diethylamino-piperidin-1-yl)quinoline] | 5.40 | 4.96 |  |  |  | 5.30 | 5.22 | 
10 | CCN(CC)C1CCN(C(C)c2cc(-c3ccccc3)nc3cc(Cl)ccc23)CC1 (stereo not drawn) [XVI-4, 7-Chloro-2-phenyl-4-{1-[4-(N,N-diethylamino)-piperidin-1-yl]-eth-1-yl}quinoline dihydrochloride] | 5.40 | 4.89 | < 20% | < 20% | < 20% | 5.22 | 5.22 | 
11 | CC(c1cc(-c2ccccc2)nc2ccccc12)N1CCC(NC(C)(C)C)CC1 (stereo not drawn) [XXIII-2, 2-phenyl-4-{1-[4-N-tert-butylamino-piperidinyl]-eth-1-yl}quinoline dihydrochloride] |  |  | < 20% | 20 to 40% | < 20% | 5.22 |  | pEC50 (A-375; Homo sapiens, 72 h): 5.10; pEC50 (HepG2; Homo sapiens, 72 h): 4.74; pEC50 (HCT-116 [4]; Homo sapiens, 72 h): 4.96
12 | COc1ccc(-c2cc(N3CCC(NC(C)(C)C)CC3)c3ccccc3n2)cc1 [XV-8, 2-(4-methoxy-phenyl)-4-(4-N-tert-butylamino-piperidin-1-yl)quinoline dihydrochloride] | 5.00 | 4.57 | 20 to 40% | > 80% | < 20% | 5.52 | 4.77 | 
